In patent US20070238141A1, “Method for measuring kinase activity” (SYSMEX CORPORATION, priority 2006, published 2007):

What was measured:
Assay type in all cases: biochemical, human
[1] = test system: receptor tyrosine kinase present in a cell membrane of SKBr3; assay: Influence of inhibitor on kinase activity of receptor tyrosine kinase, GST-poly (Glu,Tyr) substrate, Western blotting, sample iii; conditions: reaction solution containing 100 μM inhibitor, C (no inhibitor) = 100%, FIG. 10
Procedure: (§1) A culturing cell (MDA-MB231) derived from a breast cancer was cultured to 80% confluent (about 10^7 cells) in a 225 cm^2 flask. This cultured cell and 1 ml of a cell treating solution (containing 20 mM HEPES pH7.4, 0.2% PI, 10% glycerol, 200 μM Na3VO4, and 50 mM NaF) were mixed, and a cell membrane was destructed by pressurizing using a pestle to prepare a cell solution. The resulting cell solution was centrifuged, and the supernatant was discarded. A precipitate and a cell membrane solubilizing solution (containing 20 mM HEPES pH7.4, 1% NP40, 0.2% PI, 10% glycerol, 200 μM Na3VO4, and 50 mM NaF) were mixed, a cell membrane was solubilized by pressurizing using a pestle, and this was centrifuged to recover the supernatant. This supernatant was used as a sample for a reaction in the following enzyme reaction. Similarly, a sample for a reaction solution was prepared from MDA-MB468 and SKBr3 which are a cultured cell derived from a breast cancer, respectively. Herein, a sample prepared from MDA-MB231 is designated as a sample for reaction “i”, a sample prepared from MDA-MB468 is designated as a sample for reaction “ii”, and a sample prepared from SKBr3 is designated as a sample for reaction “iii”. All samples for a reaction were prepared so that a concentration of a contained protein became 0.8 mg/ml.
(§2) Each 25μ of samples for a reaction were accommodated in four tubes. […]
(§3) Using these “PD”, “W”, “AG” and “C”, Western blotting was performed according to the same method as that of Example 6. Results are shown by a graph in which a fluorescent intensity of a band of a phosphorylated GST-poly (Glu,Tyr) fused protein detected in a fluorescent photograph of Western blotting was digitalized using an exclusive use analyzing software. […]

[2] = test system: receptor tyrosine kinase present in a cell membrane of MDA-MB231; assay: Influence of inhibitor on kinase activity of receptor tyrosine kinase, GST-poly (Glu,Tyr) substrate, Western blotting, sample i; conditions: reaction solution containing 100 μM inhibitor, C (no inhibitor) = 100%, FIG. 8
Procedure: as §1, §2, §3

[3] = test system: receptor tyrosine kinase present in a cell membrane of MDA-MB468; assay: Influence of inhibitor on kinase activity of receptor tyrosine kinase, GST-poly (Glu,Tyr) substrate, Western blotting, sample ii; conditions: reaction solution containing 100 μM inhibitor, C (no inhibitor) = 100%, FIG. 9
Procedure: as §1, §2, §3

[4] = test system: receptor tyrosine kinase present in a cell membrane of SKBr3; assay: Influence of ligand on kinase activity of receptor tyrosine kinase, GST-poly (Glu,Tyr) substrate, Western blotting; conditions: reaction solution containing 100 ng of Heregulin (H) vs no ligand (C); SKBr3 membrane sample; FIG. 11
Procedure: A culturing cell (MDA-MB231) derived from a breast cancer was cultured to 80% confluent (about 10^7 cells) in a 225 cm^2 flask. This cultured cell and 1 ml of a cell treating solution (containing 20 mM HEPES pH7.4, 0.2% PI, 10% glycerol, 200 μM Na3VO4, and 50 mM NaF) were mixed, and a cell membrane was destructed by pressurizing using a pestle to prepare a cell solution. The resulting cell solution was centrifuged, and the supernatant was discarded. A precipitate and a cell membrane solubilizing solution (containing 20 mM HEPES pH7.4, 1% NP40, 0.2% PI, 10% glycerol, 200 μM Na3VO4, and 50 mM NaF) were mixed, a cell membrane was solubilized by pressurizing using a pestle, and this was centrifuged to recover the supernatant. This supernatant was used as a sample for a reaction in the following enzyme reaction. Similarly, a sample for a reaction solution was prepared from MDA-MB468 and SKBr3 which are a cultured cell derived from a breast cancer, respectively. […]
Using these “H” and “C”, Western blotting was performed according to the same method as that of Example 6. And, a fluorescent intensity of a band of a phosphorylated GST-poly (Glu,Tyr) fused protein detected in a fluorescent photograph was digitalized using an exclusive use analyzing software. […]

Compound	fluorescent intensity of band of phosphorylated GST-poly (Glu,Tyr) fused protein compared with C [1]	fluorescent intensity of band of phosphorylated GST-poly (Glu,Tyr) fused protein compared with C [2]	fluorescent intensity of band of phosphorylated GST-poly (Glu,Tyr) fused protein compared with C [3]	fluorescent intensity of band of phosphorylated GST-poly (Glu,Tyr) fused protein compared with C [4]
COc1cc2ncnc(Nc3cccc(Cl)c3)c2cc1OC [AG1478]	reduced	not inhibited	reduced	
CNc1cc2c(Nc3cccc(Br)c3)ncnc2cn1 [PD158780]	reduced	not inhibited	reduced	
COc1cc2ncnc(Nc3ccc(OCc4ccccc4)cc3)c2cc1OC [W4557]	reduced	not inhibited	reduced	
Heregulin				higher
